Results: PubChem BioAssay AID1963829 (Molecular Pharmacology Branch, DTP, NCI, 2024)

System: 935938-334-R-J1-PDC complex spheroid viability
Assay: Anticancer human tumor 935938-334-R-J1-PDC patient-derived small intestine adenocarcinoma cell line growth inhibition [POLQ]
Settings: for IC50: curve of first compound; for viability, T/C: stronger effect = lower value
Experimental: Multicellular complex tumor spheroid response to Polymerase (POL) inhibitors (novobiocin, ART-558, RP6685) in combination with a variety of drugs and investigational agents in selected tumor cell lines
The POL inhibitors (novobiocin, ART-558, and RP6685) were evaluated both individually and in combination with standard of care and investigational anticancer small molecules within a complex spheroid model of solid tumors. . Complex spheroids include a stromal component modeled by human endothelial cells (HUVEC) and fibroblasts modeled by human mesenchymal stem cells (MSCs). The concentration ranges selected for each drug and investigational agent were based upon clinically achievable concentrations if the clinical Cmax of the agent was known.
Compounds. The drugs and investigational agents: novobiocin (NSC847541), ART-558 (NSC835418), RP-6685 (NSC848927), peposertib (NSC802822), ceralasertib (NSC780249), elimusertib (NSC800525), camonsertib (NSC841442), AZD-1390 (NSC803789), olaparib (NSC753686), talazoparib (NSC767125), rucaparib (NSC756644), sotorasib (NSC818433), MRTX-1133 (NSC836407), SN-38 (NSC673596), topotecan (NSC609699), epotoside (NSC141540), doxorubicin (NSC123127), gemcitabine (NSC613327), 5-fluorouracil (NSC19893), paclitaxel (NSC125973), vemurafenib (NSC761431), MSA-2 (NSC828583), SN-011 (NSC837082), adavosertib (NSC754352), prexasertib (NSC758257), carboplatin (NSC241240) and oxaliplatin (NSC266046), were obtained from the National Cancer Institute (NCI) Developmental Therapeutics Program Chemical Repository (21). The FDA-approved anticancer drug set is available from the Developmental Therapeutics Program at https://dtp.cancer.gov/organization/dscb/obtaining/. […] The stock solutions were prepared in dimethyl sulfoxide (DMSO, Sigma-Aldrich, St. Louis, MO, cat. D2650), except for the platinum compounds which were prepared in saline (Quality Biological, Gaithersburg, MD, cat. 114-055-101), at 800-fold the tested concentration and stored at -70 degrees C prior to their use. All drugs and investigational agents were tested over a range starting from a high concentration at or near the clinical Cmax and decreasing in half-log increments. If the clinical Cmax for an agent had not been determined, the highest concentration tested was 10 microM, except for SN-38, which was tested at a high concentration of 1 microM.
Cell Culture. All cells were maintained in an incubator at 37 degrees C and 5% CO2 with 95% humidity. The PDC lines were cultured according to standard operating procedures established by the NCI PDMR (https://pdmr.cancer.gov). Table 3 of the manuscript, lists the cell lines along with the number of the three cell types plated to form the mct-spheroids and media for tumor cell growth. After thawing, all PDC lines, except 997537-175-T-J1-PDC and 415267-285-R-J2-PDC, were cultured in Matrigel-coated flasks prepared with a working solution of 1X Ham's F-12 nutrient mix, without supplementation (Thermo Fisher Scientific, cat. 11765054), 100 U/mL penicillin-streptomycin (Thermo Fisher Scientific, cat. 15140122), and 2.5% Matrigel (Corning Inc., Corning, NY, cat. 354248) for the first three passages. The two PDC lines 997537-175-T-J1-PDC and 415267-285-R-J2-PDC were cultured on uncoated flasks. The 857933-349-R-J2-PDC line was cultured in 6C/Colon 1B media containing advanced DMEM/F-12 (Thermo Fisher Scientific, cat. 12634028), 10 mM HEPES (Thermo Fisher Scientific, cat. 15630080), 1X GlutaMAX supplement (Thermo Fisher Scientific, cat. 35050061), 0.1 mg/mL primocin (InvivoGen, San Diego, CA, cat. ant-pm-2), 10% defined fetal bovine serum, heat inactivated (HyClone Laboratories Inc., Logan, UT, cat. SH30070.03HI), 50% L-WRN conditioned media (ATCC, cat. CRL-3276), 1.25 mM N-Acetyl-L-cysteine (Sigma-Aldrich, cat. A9165), 10 mM nicotinamide (Sigma-Aldrich, cat. N0636), 1X B-27 supplement (Thermo Fisher Scientific, cat. 17504044), 1X N-2 supplement (Thermo Fisher Scientific, cat. […]
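Also: spheroids exposed to drugs for seven days before viability read.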
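For viability, T/C in this document: 100% = DMSO vehicle control wells.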

SMILES: O=C(c1cc(Cc2n[nH]c(=O)c3ccccc23)ccc1F)N1CCN(C(=O)C2CC2)CC1 + COC1C(OC(N)=O)C(O)C(Oc2ccc3c(O)c(NC(=O)c4ccc(O)c(CC=C(C)C)c4)c(=O)oc3c2C)OC1(C)C
- IC50 (second compound 0.0316 µM): > 10 µM
- IC50 (second compound 0.1 µM): > 10 µM
- IC50 (second compound 0.316 µM): > 10 µM
- IC50 (second compound 1 µM): > 10 µM
- IC50 (second compound 3.16 µM): > 10 µM
- IC50 (second compound 10 µM): > 10 µM
- viability, T/C (second compound 0.0316 µM, first compound 0.0316 µM): 83.4%
- viability, T/C (second compound 0.0316 µM, first compound 0.1 µM): 89.7%
- viability, T/C (second compound 0.0316 µM, first compound 0.316 µM): 87.5%
- viability, T/C (second compound 0.0316 µM, first compound 1 µM): 110%
- viability, T/C (second compound 0.0316 µM, first compound 3.16 µM): 79.9%
- viability, T/C (second compound 0.0316 µM, first compound 10 µM): 64.6%
- viability, T/C (second compound 0.1 µM, first compound 0.0316 µM): 101%
- viability, T/C (second compound 0.1 µM, first compound 0.1 µM): 99.1%
- viability, T/C (second compound 0.1 µM, first compound 0.316 µM): 95.9%
- viability, T/C (second compound 0.1 µM, first compound 1 µM): 90.8%
- viability, T/C (second compound 0.1 µM, first compound 3.16 µM): 80.8%
- viability, T/C (second compound 0.1 µM, first compound 10 µM): 58%
- viability, T/C (second compound 0.316 µM, first compound 0.0316 µM): 78.4%
- viability, T/C (second compound 0.316 µM, first compound 0.1 µM): 98.6%
- viability, T/C (second compound 0.316 µM, first compound 0.316 µM): 90.3%
- viability, T/C (second compound 0.316 µM, first compound 1 µM): 77.4%
- viability, T/C (second compound 0.316 µM, first compound 3.16 µM): 88.7%
- viability, T/C (second compound 0.316 µM, first compound 10 µM): 85.2%
- viability, T/C (second compound 1 µM, first compound 0.0316 µM): 76.7%
- viability, T/C (second compound 1 µM, first compound 0.1 µM): 84.6%
- viability, T/C (second compound 1 µM, first compound 0.316 µM): 102%
- viability, T/C (second compound 1 µM, first compound 1 µM): 87.5%
- viability, T/C (second compound 1 µM, first compound 3.16 µM): 94.5%
- viability, T/C (second compound 1 µM, first compound 10 µM): 79.4%
- viability, T/C (second compound 3.16 µM, first compound 0.0316 µM): 119%
- viability, T/C (second compound 3.16 µM, first compound 0.1 µM): 85%
- viability, T/C (second compound 3.16 µM, first compound 0.316 µM): 107%
- viability, T/C (second compound 3.16 µM, first compound 1 µM): 75.9%
- viability, T/C (second compound 3.16 µM, first compound 3.16 µM): 64.6%
- viability, T/C (second compound 3.16 µM, first compound 10 µM): 84%
- viability, T/C (second compound 10 µM, first compound 0.0316 µM): 94.9%
- viability, T/C (second compound 10 µM, first compound 0.1 µM): 102%
- viability, T/C (second compound 10 µM, first compound 0.316 µM): 80.3%
- viability, T/C (second compound 10 µM, first compound 1 µM): 83.8%
- viability, T/C (second compound 10 µM, first compound 3.16 µM): 81.7%
- viability, T/C (second compound 10 µM, first compound 10 µM): 69.5%
